Several values for one entry are separate records, joined by “and”; a condition that tells them apart may be missing. Identical values can stand only once. Toxic doses and inconclusive results are not listed. Rule as the data show it: active = T/C of 150% or more; inactive = T/C below 125%.
Tested on: L1210 leukemia ip in BDF1 mice, survival T/C
Assay: NCI In Vivo Anticancer Drug Screen. Data for tumor model L1210 Leukemia (intraperitoneal) in B6D2F1 (BDF1) mice
Conditions: endpoint: mean survival time, higher = longer survival
Outline: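 Read-out is survival time, reported as the treated-group measurement over the vehicle-control measurement.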

[1] = dose: 100.0 mg/kg/injection, schedule: Q04DX003 (ip), vehicle: saline with Tween-80
[2] = dose: 200.0 mg/kg/injection, schedule: Q04DX003 (ip), vehicle: saline with Tween-80
[3] = dose: 100.0 mg/kg/injection, schedule: Q04DX003 (ip), vehicle: saline
[4] = dose: 100.0 mg/kg/injection, schedule: Q01DX009 (ip), vehicle: saline with Tween-80
[5] = dose: 200.0 mg/kg/injection, schedule: Q01DX009 (ip), vehicle: saline with Tween-80
[6] = dose: 400.0 mg/kg/injection, schedule: Q01DX009 (ip), vehicle: saline with Tween-80
[7] = dose: 400.0 mg/kg/injection, schedule: Q04DX003 (ip), vehicle: saline with Tween-80

Measured: T/C

CC1(C)OC2COC(c3[nH]nc(C(N)=O)c3Br)C2O1 (configuration not stated)
inactive: dose: 100.0 mg/kg/injection, schedule: Q01DX005 (ip), vehicle: saline 104 % of control | dose: 200.0 mg/kg/injection, schedule: Q01DX005 (ip), vehicle: saline 96 % of control

CS(=O)(=O)O.[Cu+2]
inactive: dose: 5.0 mg/kg/injection, schedule: Q01DX001 (ip), vehicle: saline 93 % of control | dose: 10.0 mg/kg/injection, schedule: Q01DX001 (ip), vehicle: saline 96 % of control

COc1c(O)cc2c(c1OC)-c1ccc(OC)c(=O)cc1C(NC=O)CC2 (configuration not stated)
inactive: [1] 116 % of control | [2] 93 % of control

O=C1NC(=O)C(CO)(CO)N1
inactive: dose: 12.5 mg/kg/injection, schedule: Q04DX003 (ip), vehicle: saline 110 % of control | dose: 25.0 mg/kg/injection, schedule: Q04DX003 (ip), vehicle: saline 97 % of control | dose: 50.0 mg/kg/injection, schedule: Q04DX003 (ip), vehicle: saline 100 % of control | dose: 100.0 mg/kg/injection, schedule: Q01DX009 (ip), vehicle: saline 110 % of control | [3] 121 % of control | dose: 200.0 mg/kg/injection, schedule: Q01DX009 (ip), vehicle: saline 107 % of control | dose: 200.0 mg/kg/injection, schedule: Q04DX003 (ip), vehicle: saline 103 % of control | dose: 400.0 mg/kg/injection, schedule: Q01DX009 (ip), vehicle: saline 113 % of control | dose: 400.0 mg/kg/injection, schedule: Q04DX003 (ip), vehicle: saline 105 % of control

O=C(c1ccccc1)N1CC1
inactive: dose: 25.0 mg/kg/injection, schedule: Q01DX009 (ip), vehicle: water 95 % of control | dose: 50.0 mg/kg/injection, schedule: Q01DX009 (ip), vehicle: water 93 % of control | dose: 100.0 mg/kg/injection, schedule: Q01DX009 (ip), vehicle: water 86 % of control | dose: 200.0 mg/kg/injection, schedule: Q01DX009 (ip), vehicle: water 88 % of control | dose: 400.0 mg/kg/injection, schedule: Q01DX009 (ip), vehicle: water 90 % of control

COc1ccc(/C=N\O)cc1OC
inactive: [4] 94 % of control and 90 % of control | [5] 101 % of control | [6] 90 % of control

CC(=O)c1cc(Cl)ccc1Cl
inactive: dose: 100.0 mg/kg/injection, schedule: Q04DX002 (ip), vehicle: saline 97 % of control | dose: 200.0 mg/kg/injection, schedule: Q04DX002 (ip), vehicle: saline 103 % of control | dose: 400.0 mg/kg/injection, schedule: Q04DX002 (ip), vehicle: saline 103 % of control

O=[N+]([O-])c1ccc(Cl)c2ccncc12
inactive: dose: 50.0 mg/kg/injection, schedule: Q01DX009 (ip), vehicle: saline with Tween-80 102 % of control | [4] 105 % of control | [5] 105 % of control

O=C(Cn1cc(F)c(=O)[nH]c1=O)c1ccc(Cl)s1
inactive: [4] 108 % of control | [1] 100 % of control | [5] 89 % of control | [2] 97 % of control | [6] 97 % of control | [7] 102 % of control

CCN(CC)Cc1cc(Nc2cc(C)nc(/N=C(\N)Nc3cc(Cl)cc(Cl)c3)n2)ccc1O
inactive: [1] 98 % of control

CC1([N+](=O)[O-])COP(=O)(Nc2ccc(Cl)cc2)OC1 (configuration not stated)
inactive: dose: 100.0 mg/kg/injection, schedule: Q01DX001 (ip), vehicle: carboxymethylcellulose (CMC) 95 % of control | dose: 200.0 mg/kg/injection, schedule: Q01DX001 (ip), vehicle: carboxymethylcellulose (CMC) 93 % of control | dose: 400.0 mg/kg/injection, schedule: Q01DX001 (ip), vehicle: carboxymethylcellulose (CMC) 98 % of control

O=C(Nc1ccccc1F)Oc1ccc(C2CCCCC2)cc1
inactive: [4] 104 % of control | [5] 104 % of control | [6] 101 % of control

CCOc1ccc(-n2c(O)c(N=Nc3ccc(Br)cc3)c(=O)n(-c3ccc(OC)cc3)c2=S)cc1
inactive: dose: 50.0 mg/kg/injection, schedule: Q01DX001 (ip), vehicle: Klucel (hydroxypropylcellulose) (HPC) 94 % of control | dose: 100.0 mg/kg/injection, schedule: Q01DX001 (ip), vehicle: Klucel (hydroxypropylcellulose) (HPC) 94 % of control | dose: 200.0 mg/kg/injection, schedule: Q01DX001 (ip), vehicle: Klucel (hydroxypropylcellulose) (HPC) 94 % of control

CCCCCCCN(CCCCCCC)CC(O)c1cc2ccccc2c2cnccc12 (configuration not stated)
inactive: dose: 100.0 mg/kg/injection, schedule: Q01DX009 (ip), vehicle: other 98 % of control | dose: 100.0 mg/kg/injection, schedule: Q04DX003 (ip), vehicle: Klucel (hydroxypropylcellulose) (HPC) 91 % of control | dose: 200.0 mg/kg/injection, schedule: Q01DX009 (ip), vehicle: other 97 % of control | dose: 200.0 mg/kg/injection, schedule: Q04DX003 (ip), vehicle: Klucel (hydroxypropylcellulose) (HPC) 98 % of control | dose: 400.0 mg/kg/injection, schedule: Q04DX003 (ip), vehicle: Klucel (hydroxypropylcellulose) (HPC) 93 % of control

O=[N+]([O-])c1ccccc1C=Nc1ccccc1
inactive: dose: 100.0 mg/kg/injection, schedule: Q01DX009 (ip), vehicle: acetone 96 % of control | dose: 100.0 mg/kg/injection, schedule: Q04DX003 (ip), vehicle: acetone 106 % of control | dose: 200.0 mg/kg/injection, schedule: Q01DX009 (ip), vehicle: acetone 98 % of control | dose: 200.0 mg/kg/injection, schedule: Q04DX003 (ip), vehicle: acetone 97 % of control | dose: 400.0 mg/kg/injection, schedule: Q01DX009 (ip), vehicle: acetone 102 % of control | dose: 400.0 mg/kg/injection, schedule: Q04DX003 (ip), vehicle: acetone 101 % of control

CC(C)(C)c1cccc(C(C)(C)C)n1
inactive: [1] 97 % of control | [2] 105 % of control | [7] 115 % of control

Cc1ccc(C(C)(C)[CH2][Sn]([CH2]C(C)(C)c2ccc(C)cc2)([CH2]C(C)(C)c2ccc(C)cc2)[CH2]C(C)(C)c2ccc(C)cc2)cc1
inactive: dose: 50.0 mg/kg/injection, schedule: Q04DX002 (ip), vehicle: saline with Tween-80 92 % of control | dose: 100.0 mg/kg/injection, schedule: Q04DX002 (ip), vehicle: saline with Tween-80 100 % of control | dose: 200.0 mg/kg/injection, schedule: Q04DX002 (ip), vehicle: saline with Tween-80 103 % of control | dose: 400.0 mg/kg/injection, schedule: Q04DX002 (ip), vehicle: saline with Tween-80 92 % of control

CS(=O)(=O)CC(=O)c1ccc(O)cc1O
inactive: dose: 100.0 mg/kg/injection, schedule: Q01DX001 (ip), vehicle: saline with Tween-80 106 % of control | dose: 200.0 mg/kg/injection, schedule: Q01DX001 (ip), vehicle: saline with Tween-80 103 % of control | dose: 400.0 mg/kg/injection, schedule: Q01DX001 (ip), vehicle: saline with Tween-80 95 % of control

CC12CCCCC1CCC1C2CCC2(C)C(C(=O)O)CCC12 (configuration not stated)
inactive: dose: 100.0 mg/kg/injection, schedule: Q04DX002 (ip), vehicle: gum acacia 89 % of control | dose: 200.0 mg/kg/injection, schedule: Q04DX002 (ip), vehicle: gum acacia 99 % of control | dose: 400.0 mg/kg/injection, schedule: Q04DX002 (ip), vehicle: gum acacia 92 % of control

COc1ccc(-c2nnc(Cl)o2)cc1
inactive: [3] 94 % of control

CC(CN(C)C)CN1c2ccccc2CCc2ccccc21 (configuration not stated)
inactive: dose: 4.37 mg/kg/injection, schedule: Q01DX009 (ip), vehicle: saline 101 % of control | dose: 8.75 mg/kg/injection, schedule: Q01DX009 (ip), vehicle: saline 101 % of control | dose: 17.5 mg/kg/injection, schedule: Q01DX009 (ip), vehicle: saline 98 % of control | dose: 17.5 mg/kg/injection, schedule: Q04DX003 (ip), vehicle: saline 102 % of control | dose: 35.0 mg/kg/injection, schedule: Q01DX009 (ip), vehicle: saline 107 % of control | dose: 35.0 mg/kg/injection, schedule: Q04DX003 (ip), vehicle: saline 102 % of control | dose: 70.0 mg/kg/injection, schedule: Q04DX003 (ip), vehicle: saline 104 % of control
